Values quoted from earlier work as cited in US20130129827A1, “EXTENDED RELEASE PHARMACEUTICAL COMPOSITIONS OF PALIPERIDONE AND PROCESSES OF PREPARATION THEREOF” (RANBAXY LABORATORIES LIMITED, priority 2009, published 2013).

Settings: background statement, species not given

half-life: about a day
SMILES: Cc1nc2n(c(=O)c1CCN1CCC(c3noc4cc(F)ccc34)CC1)CCCC2O (racemic) [Paliperidone, (±)-3-[2-[4-(6-fluoro-1,2-benzisoxazol-3-yl)-1-piperidinyl]ethyl]-6,7,8,9-tetrahydro-9-hydroxy-2-methyl-4H-pyrido[1,2-a]pyrimidin-4-one]
